Measured values from patent US10343991B2, “C5, C6 substituted and/or fused oxindoles as anti-cancer agents and process for preparation thereof” (Council of Scientific & Industrial Research, priority 2016, dated 2019).

Experiments:
DU-145 cells = test: SRB assay, cell viability; type: cell-based; conditions: Homo sapiens, 48 h, average of three experiments, read-out: DU145 Cell Viability at 10 μM
Protocol: (§1) In order to determine the anticancer potency, the synthesized oxindole derivatives were evaluated for anti-cancer activity various different human cancer cell lines, Leukemic Cancer (THP1), human breast cancer (MDA-MB-231 and MCF-7), human cervix carcinoma cells (HeLa), prostate cancer (DU-145) cellS by using standard Trypan blue and SRB assays. The preliminary anticancer activity for all the synthesized compounds was done at 10 μM concentration and cell inhibition was determined. […] The experiment was repeated thrice and the average values were taken.
(§2) The assay was carried out in a 24 well flat-bottomed microtiter tissue culture plate. Cells were seeded in the plates with a density of 4×10^4 cells/well (counted by tryphan blue exclusion dye method). After 24 hours media was replaced with fresh media and then compounds were added to obtain a concentrations of 10 μM. Sunitinib was used as positive control. Plates were incubated for 48 h at 37° C. in a humidified incubator with 5% CO2. After 48 hours without removing the cell culture supernatant, 500 μl of cold 10% (wt/vol) TCA was added to each well, and the plates were incubated at 4° C. for 1 h. The plates were washed for four times with water then rinsed with water several times to remove TCA, serum, proteins and excess water was removed using paper towels and air dried. 100 μl of 0.4% (wt/vol in 1% acetic acid) SRB solution was added to each well. Plates were left at room temperature for 30 min and then the plates were quickly rinsed for four times with 1% (vol/vol) acetic acid to remove unbound dye were and then air dried until no moisture was visible. 100 μl of 10 mM Tris base solution (pH 10.5) was added to each well and shake for 5 min to solubilize the protein-bound dye. Optical density was measured at 564 nm in a micro plate reader.

MDA-MB-231 cells = test: SRB assay, cell viability; type: cell-based; conditions: Homo sapiens, 48 h, average of three experiments
Protocol: as §1, §2

MCF-7 cells = test: SRB assay, cell viability; type: cell-based; conditions: Homo sapiens, MCF7, 48 h, average of three experiments
Protocol: as §1, §2

HeLa cells = test: SRB assay, cell viability; type: cell-based; conditions: Homo sapiens, 48 h, average of three experiments
Protocol: as §1, §2

[1] = system: VEGF tyrosin kinase (VEGFR); test: VEGFR activity, phosphotyrosine (PY) cell-based ELISA; conditions: 10 μM, 60 min pretreatment, VEGF stimulation
Protocol: Briefly, cells at 60-75% confluence were placed in serum-free medium for 18 h to reduce the background of phosphorylation. Cells were then pretreated for 60 min with 2b, 3d, 3e, 3g, 3h, 3i, 3j and 3k compounds at 10 μM concentration followed by an optimized dose of purified growth factor (VEGF). The reaction was stopped, and cells were permeabilized by quickly removing the media from the cells and adding ice-cold Tris-buffered saline (TBS) containing 0.05% triton X-100, protease inhibitor cocktail, and tyrosine phosphatase inhibitor cocktail (both from Sigma Chemical). The TBS solution was then removed, and cells were fixed to the plate by heat and further incubation in 70% ethanol. Cells were further exposed to block (TBS with 1% BSA) and washed, and then a horseradish peroxidase (HRP)-conjugated phosphotyrosine antibody was added. The antibody was removed; cells were washed again and exposed to an enhanced luminol ELISA substrate, and light emission was measured using a plate reader. The known RTK-specific kinase inhibitor (Sunitinib) was used as positive control for kinase inhibition.

THP1 cells [2] = test: Trypan blue assay, cell viability; type: cell-based; conditions: Homo sapiens, THP-1, 48 h, average of three experiments
Protocol: as §1
The assay was carried out in a 24 well flat-bottomed microtiter tissue culture plate. THP1 cells were seeded in the plates with a density of 4×10^4 cells/well (counted by tryphan blue exclusion dye method). Compounds were added to obtain a concentration of 10 μM. Sunitinib was used as positive control. Plates were incubated for 48 h at 37° C. in a humidified incubator with 5% CO2. At the end of the treatments, cells (THP1) were resuspended in 0.4% trypan blue and percent cell viability was counted using countess cell chamber (Life Technologies).

THP1 cells [3] = type: cell-based, human; conditions: THP-1 cells, 10 μM, 24 h; untreated cells 68.3%
Protocol: To understand the anticancer activity mechanism of the synthesized oxindole derivatives, we analysed the cell cycle alteration phase distribution of the cells by treating THP1 cells with oxindole derivatives at 10 μM, for 24 h and analyzed by flow cytometry. Treatment of THP-1 cells with compounds 2b, 3d, 3e, 3g, 3h, 3i, 3j and 3k caused an accumulation of 98.5%, 94.3%, 96.7%, 97%, 98%, 83%, 93.5%, 98.1% cells in the G0/G1 phase respectively as compared to 68.3% in untreated cells and 99.5% in Sunitinib treated cells. […] (Fig. x and Table .y).
The THP1 cells were treated with the active compounds at […] and incubated for about 24 h. The cells were fixed in ice cold ethanol solvent at 4° C. for about 30 minutes. The ethanol was removed and cells were treated with 1 mL of DNA staining solution (2 mg of RNase and 0.2 mg of propidium iodide (PI)) for 30 minutes. The DNA content was measured by flow cytometry (BD FACS C anto II). Results were analysed using FCS express 4 plus software.

Row | Compound | viability at 10 µM (DU-145 cells) [%] | viability at 10 µM (MDA-MB-231 cells) [%] | viability at 10 µM (MCF-7 cells) [%] | viability at 10 µM (HeLa cells) [%] | inhibitory activity of VEGF tyrosin kinase activity [1] | viability at 10 µM (THP1 cells [2]) [%] | melting point [°C] | accumulation of cells in the G0/G1 phase (THP1 cells [3]) [%]
1 | Cc1ccsc1/C=C1\C(=O)Nc2cc3oc(Cc4ccccc4)c(-c4ccccc4)c3cc21 [Compound 3i, (Z)-2-benzyl-5-((3-methylthiophen-2-yl)methylene)-3-phenyl-5H-furo[3,2-f]indol-6(7H)-one] | 52 | 43.2 | 31.4 | 42.6 | inhibitory activity | 41.2 | 165 to 168 | 83
2 | CN(C)c1ccc(/C=C2\C(=O)Nc3cc4oc(Cc5ccccc5)c(-c5ccccc5)c4cc32)c2ccccc12 [Compound 3j, (Z)-2-benzyl-5-((4-(dimethylamino)naphthalen-1-yl)methylene)-3-phenyl-5H-furo[3,2-f]indol-6(7H)-one] | 45.2 | 71.3 | 37.8 | 107 | inhibitory activity | 83.3 | 241 to 245 | 93.5
